Source: ChEMBL document CHEMBL1921754, “Sodium dl-α-tocopheryl-6-O-phosphate inhibits PGE₂ production in keratinocytes induced by UVB, IL-1β and peroxidants” (Bioorg Med Chem, 2011)
Active and inactive are the calls of the source. No cut-off for these calls is given here.

Columns and labels:
[1] = Protection against UVB irradiation-induced cell damage in NHEK assessed as inhibition of PGE2 production at 2 uM pretreated for 24 hrs before UVB irradiation measured after 24 hrs by enzymatic immunoassay; format: functional; conditions: Homo sapiens, light or radiation study
Keratinocyte = test: Protection against UVB irradiation-induced SV40-transformed human keratinocytes damage assessed as inhibition of PGE2 production at 30 uM pretreated for 24 hrs before UVB irradiation measured after 24 hrs by ELISA; format: functional, cell-based
Homo sapiens [2] = species: Homo sapiens; test: Protection against H2O2-induced cell damage in NHEK assessed as inhibition of PGE2 production at 0.5 to 2 uM after 24 hrs by enzymatic immunoassay; format: functional
[3] = Protection against IL1-beta-induced cell damage in NHEK assessed as inhibition of PGE2 production at 2 uM pretreated for 24 hrs before IL1-beta challenge measured after 24 hrs by enzymatic immunoassay; format: functional; conditions: Homo sapiens
[4] = (§1) Protection against t-BHP-induced cell damage in NHEK assessed as inhibition of PGE2 production at 2 uM pretreated for 24 hrs before t-BHP challenge measured after 24 hrs by enzymatic immunoassay; format: functional; conditions: Homo sapiens
[5] = Protection against IL1-beta-induced cell damage in NHEK assessed as inhibition of PGE2 production at 0.1 uM pretreated for 24 hrs before IL1-beta challenge measured after 24 hrs by enzymatic immunoassay; format: functional; conditions: Homo sapiens
[6] = Protection against H2O2-induced cell damage in NHEK assessed as inhibition of PGE2 production at 2 uM pretreated for 24 hrs before H2O2 challenge measured after 24 hrs by enzymatic immunoassay; format: functional; conditions: Homo sapiens
[7] = Protection against IL1-beta-induced cell damage in NHEK assessed as inhibition of PGE2 production at 0.5 uM pretreated for 24 hrs before IL1-beta challenge measured after 24 hrs by enzymatic immunoassay; format: functional; conditions: Homo sapiens
Zone of skin = test: Prodrug conversion in 3D restructured human skin model assessed as conversion of compound to dl-alpha-tocopherol at 2% after 4 hrs by HPLC analysis; format: ADME, tissue-based
Homo sapiens [8] = species: Homo sapiens; test: as §1; format: functional
[9] = Protection against H2O2-induced cell damage in NHEK assessed as inhibition of PGE2 production at 0.5 to 2 uM pretreated for 24 hrs before H2O2 challenge measured after 24 hrs by enzymatic immunoassay; format: functional, Homo sapiens

| Compound | inhibition at 2 µM [1] [%] | inhibition (Homo sapiens [2]) | inhibition at 2 µM [3] [%] | inhibition at 0.5 µM [7] [%] | further results |
| --- | --- | --- | --- | --- | --- |
| Cc1ccc(S(=O)(=O)/C=C/C#N)cc1 | 9 |  |  |  |  |
| O=C1O[C@H]([C@@H](O)CO)C(O)=C1OP(=O)(O)O |  |  |  |  | inhibition (Keratinocyte): inactive |
| CC(=O)Oc1c(C)c(C)c2c(c1C)CC[C@@](C)(CCC[C@H](C)CCC[C@H](C)CCCC(C)C)O2 (racemic) |  | inactive | 67 | 40 | inhibition at 2 µM [4]: 77.4%; inhibition at 0.1 µM [5]: 38%; inhibition at 2 µM [6]: 25%; Drug metabolism (Zone of skin): Active |
| CC1(C)[C@@H](O[C@H]2O[C@H](C(=O)[O-])[C@@H](O)[C@H](O)[C@H]2O[C@@H]2O[C@H](C(=O)[O-])[C@@H](O)[C@H](O)[C@H]2O)CC[C@]2(C)[C@H]3C(=O)C=C4[C@@H]5C[C@@](C)(C(=O)O)CC[C@]5(C)CC[C@@]4(C)[C@]3(C)CC[C@@H]12.[K+].[K+] [GLYCYRRHIZINATE DIPOTASSIUM] |  | inactive | 24 | 14 | inhibition (Homo sapiens [8]): inactive; inhibition (INH) [9]: 40% |
| C[S+]([O-])c1ccc(-c2nc(-c3ccc(F)cc3)c(-c3ccncc3)[nH]2)cc1 (stereo unspecified) [SB-203580] | 73 |  |  |  |  |
| Oc1c2ccccc2c2c3c(cccc13)N=N2 [SP-600125] | 33 |  |  |  |  |
